# Test results published in ChEMBL document CHEMBL1201862, “PubChem BioAssay data set” (2004).
# Calls of active or inactive are those of the source.
# What was measured:
# [1] = biological target: T1, Sentrin-specific protease 8 (Homo sapiens, UniProt Q96LD8); assay type: functional
# T1 sequence (Q96LD8 whole entry): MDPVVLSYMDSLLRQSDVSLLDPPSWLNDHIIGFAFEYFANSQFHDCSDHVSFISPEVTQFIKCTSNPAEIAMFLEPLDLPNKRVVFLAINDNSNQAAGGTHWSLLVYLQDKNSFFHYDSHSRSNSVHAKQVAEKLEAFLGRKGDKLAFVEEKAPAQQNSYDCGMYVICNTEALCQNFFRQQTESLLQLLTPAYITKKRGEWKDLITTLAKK
# [2] = biological target: T1, Sentrin-specific protease 8; assay type: functional; remark: listed apart in the source
# [3] = biological target: T2, Mannose-6-phosphate isomerase (Homo sapiens, UniProt P34949); assay: human PMI inhibitors, high substrate, primary screen, biochemical, fluorescence intensity, high mannose 6-phosphate (AID 1220)
# T2 sequence (P34949 whole entry): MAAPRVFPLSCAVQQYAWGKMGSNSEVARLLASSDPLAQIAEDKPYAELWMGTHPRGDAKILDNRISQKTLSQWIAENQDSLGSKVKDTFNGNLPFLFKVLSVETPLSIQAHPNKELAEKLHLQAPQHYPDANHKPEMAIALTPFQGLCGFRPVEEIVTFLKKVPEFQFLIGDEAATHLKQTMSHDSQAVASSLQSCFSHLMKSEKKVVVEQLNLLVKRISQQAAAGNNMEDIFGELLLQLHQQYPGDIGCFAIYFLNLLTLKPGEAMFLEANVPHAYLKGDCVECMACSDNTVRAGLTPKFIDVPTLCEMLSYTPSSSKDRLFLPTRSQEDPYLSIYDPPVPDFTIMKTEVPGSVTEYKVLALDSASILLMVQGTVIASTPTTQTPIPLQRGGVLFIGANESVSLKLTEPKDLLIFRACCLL
# Vero = assay: Vero cell toxicity, dose response, cytotoxicity control, plate reader, cherry-pick samples (AID 687020); assay type: functional, cell-based; settings: Chlorocebus sabaeus
# Beta-galactosidase = Beta-galactosidase (Escherichia coli, UniProt Q8VNN2); assay: Dose response counterscreen for EBI2 assay utilizing the enzyme, b-galactosidase.; assay type: functional
# Sequence of Beta-galactosidase (Q8VNN2 whole entry): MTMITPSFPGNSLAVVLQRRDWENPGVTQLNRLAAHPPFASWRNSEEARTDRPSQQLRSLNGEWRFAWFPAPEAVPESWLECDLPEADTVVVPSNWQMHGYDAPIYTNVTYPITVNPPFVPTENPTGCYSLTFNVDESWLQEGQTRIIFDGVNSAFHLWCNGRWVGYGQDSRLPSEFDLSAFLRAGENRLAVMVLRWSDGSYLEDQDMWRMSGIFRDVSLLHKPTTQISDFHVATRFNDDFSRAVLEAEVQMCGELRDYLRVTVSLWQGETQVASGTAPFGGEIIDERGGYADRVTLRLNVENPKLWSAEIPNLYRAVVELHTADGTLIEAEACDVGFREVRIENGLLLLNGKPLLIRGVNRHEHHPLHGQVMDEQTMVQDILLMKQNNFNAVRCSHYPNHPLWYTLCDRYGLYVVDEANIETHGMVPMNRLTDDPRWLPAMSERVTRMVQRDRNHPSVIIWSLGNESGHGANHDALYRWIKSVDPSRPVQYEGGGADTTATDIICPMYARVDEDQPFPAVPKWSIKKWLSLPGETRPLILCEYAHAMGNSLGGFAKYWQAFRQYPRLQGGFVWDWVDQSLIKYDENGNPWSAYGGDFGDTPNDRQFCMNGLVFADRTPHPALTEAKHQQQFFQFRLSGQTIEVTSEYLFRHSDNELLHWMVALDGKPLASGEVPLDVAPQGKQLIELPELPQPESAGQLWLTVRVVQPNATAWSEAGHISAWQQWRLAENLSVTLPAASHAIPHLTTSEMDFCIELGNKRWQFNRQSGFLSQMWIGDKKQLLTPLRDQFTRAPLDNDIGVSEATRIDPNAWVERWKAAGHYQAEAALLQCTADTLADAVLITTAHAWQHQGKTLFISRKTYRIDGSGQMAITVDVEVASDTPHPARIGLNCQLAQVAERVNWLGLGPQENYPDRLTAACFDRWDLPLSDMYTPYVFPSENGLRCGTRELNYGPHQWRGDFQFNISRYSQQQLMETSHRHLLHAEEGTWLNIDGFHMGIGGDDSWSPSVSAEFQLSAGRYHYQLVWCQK
# [4] = biological target: T3, Corticotropin-releasing factor receptor 2/Corticotropin-releasing factor-binding protein (Homo sapiens, UniProt P24387+Q13324); assay: Dose Response confirmation of uHTS hits for small molecule antagonists of the CRF-binding protein and CRF-R2 receptor complex.; assay type: functional; settings: read-out: IC50_Mean
# T3 sequence (Q13324 whole entry): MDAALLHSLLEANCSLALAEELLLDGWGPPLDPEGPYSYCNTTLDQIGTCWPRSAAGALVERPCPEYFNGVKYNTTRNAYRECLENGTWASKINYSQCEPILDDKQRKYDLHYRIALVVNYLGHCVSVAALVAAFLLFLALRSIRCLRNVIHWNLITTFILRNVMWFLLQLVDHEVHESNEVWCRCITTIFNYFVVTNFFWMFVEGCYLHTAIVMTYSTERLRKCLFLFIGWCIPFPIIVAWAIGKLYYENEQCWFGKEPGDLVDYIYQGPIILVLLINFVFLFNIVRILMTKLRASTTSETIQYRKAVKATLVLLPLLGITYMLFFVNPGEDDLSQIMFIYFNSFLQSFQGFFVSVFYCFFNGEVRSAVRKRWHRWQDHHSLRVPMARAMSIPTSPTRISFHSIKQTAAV
# T3 sequence (P24387 whole entry): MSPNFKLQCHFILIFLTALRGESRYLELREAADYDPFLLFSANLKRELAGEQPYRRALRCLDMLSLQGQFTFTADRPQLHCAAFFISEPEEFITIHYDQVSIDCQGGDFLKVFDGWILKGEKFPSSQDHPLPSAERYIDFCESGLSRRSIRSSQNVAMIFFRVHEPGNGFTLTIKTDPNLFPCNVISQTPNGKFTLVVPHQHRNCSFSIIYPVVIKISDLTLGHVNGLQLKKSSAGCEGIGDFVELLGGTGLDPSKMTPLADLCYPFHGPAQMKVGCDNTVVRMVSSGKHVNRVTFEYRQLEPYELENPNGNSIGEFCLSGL
# [5] = biological target: T3, Corticotropin-releasing factor receptor 2/Corticotropin-releasing factor-binding protein; assay: activators of CRF receptor 2 with binding protein – uHTS hits, confirmation (AID 602473); assay type: functional; settings: read-out: EC50_Mean
# Beta-lactamase [6] = biological target: Beta-lactamase (Pseudomonas aeruginosa, UniProt Q79MP6);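 also: biochemical dose-response test of metallo-beta-lactamase enzyme inhibition, read out by epi-absorbance; purified recombinant IMP-1 metallo-beta-lactamase with nitrocefin as substrate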
# Sequence of Beta-lactamase (Pseudomonas aeruginosa, UniProt Q79MP6) (Q79MP6 whole entry): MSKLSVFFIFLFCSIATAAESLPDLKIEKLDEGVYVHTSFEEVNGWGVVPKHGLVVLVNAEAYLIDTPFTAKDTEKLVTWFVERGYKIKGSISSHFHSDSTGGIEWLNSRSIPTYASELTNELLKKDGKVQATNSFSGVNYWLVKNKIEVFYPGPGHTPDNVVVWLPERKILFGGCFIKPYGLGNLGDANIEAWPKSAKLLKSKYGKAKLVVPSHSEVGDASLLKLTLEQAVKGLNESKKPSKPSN
# Beta-lactamase [7] = biological target: Beta-lactamase (Salmonella choleraesuis (strain SC-B67), UniProt Q5J463)
# Sequence of Beta-lactamase (Salmonella choleraesuis (strain SC-B67), UniProt Q5J463) (Q5J463 whole entry): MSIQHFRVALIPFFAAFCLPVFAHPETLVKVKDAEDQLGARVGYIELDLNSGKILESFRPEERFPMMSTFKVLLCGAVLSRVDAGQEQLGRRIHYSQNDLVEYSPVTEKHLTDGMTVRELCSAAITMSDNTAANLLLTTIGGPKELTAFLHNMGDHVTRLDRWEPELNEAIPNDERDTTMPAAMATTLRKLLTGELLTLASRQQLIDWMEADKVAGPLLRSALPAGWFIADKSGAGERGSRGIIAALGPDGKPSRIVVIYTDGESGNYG
# [8] = biological target: T4, Small ubiquitin-related modifier 1 (Homo sapiens, UniProt P63165); assay: inhibitors of SUMO1 partner interactions, dose response, biochemical, FRET (AID 624383); assay type: functional; settings: read-out: IC50_Mean
# T4 sequence (P63165 whole entry): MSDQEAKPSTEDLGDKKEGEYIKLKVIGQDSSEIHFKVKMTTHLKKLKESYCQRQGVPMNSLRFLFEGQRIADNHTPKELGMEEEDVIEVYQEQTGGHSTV
# [9] = biological target: T4, Small ubiquitin-related modifier 1; assay: inhibitors of SUMO1 peptide binding, dose response, biochemical, fluorescence polarization, uHTS hits (AID 624382); assay type: functional; settings: read-out: IC50_Mean
# [10] = biological target: T5, Aryl hydrocarbon receptor (Homo sapiens, UniProt P35869); settings: Potency;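 also: confirmatory quantitative high-throughput screen measuring activation of the AhR signaling pathway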
# T5 sequence (P35869 whole entry): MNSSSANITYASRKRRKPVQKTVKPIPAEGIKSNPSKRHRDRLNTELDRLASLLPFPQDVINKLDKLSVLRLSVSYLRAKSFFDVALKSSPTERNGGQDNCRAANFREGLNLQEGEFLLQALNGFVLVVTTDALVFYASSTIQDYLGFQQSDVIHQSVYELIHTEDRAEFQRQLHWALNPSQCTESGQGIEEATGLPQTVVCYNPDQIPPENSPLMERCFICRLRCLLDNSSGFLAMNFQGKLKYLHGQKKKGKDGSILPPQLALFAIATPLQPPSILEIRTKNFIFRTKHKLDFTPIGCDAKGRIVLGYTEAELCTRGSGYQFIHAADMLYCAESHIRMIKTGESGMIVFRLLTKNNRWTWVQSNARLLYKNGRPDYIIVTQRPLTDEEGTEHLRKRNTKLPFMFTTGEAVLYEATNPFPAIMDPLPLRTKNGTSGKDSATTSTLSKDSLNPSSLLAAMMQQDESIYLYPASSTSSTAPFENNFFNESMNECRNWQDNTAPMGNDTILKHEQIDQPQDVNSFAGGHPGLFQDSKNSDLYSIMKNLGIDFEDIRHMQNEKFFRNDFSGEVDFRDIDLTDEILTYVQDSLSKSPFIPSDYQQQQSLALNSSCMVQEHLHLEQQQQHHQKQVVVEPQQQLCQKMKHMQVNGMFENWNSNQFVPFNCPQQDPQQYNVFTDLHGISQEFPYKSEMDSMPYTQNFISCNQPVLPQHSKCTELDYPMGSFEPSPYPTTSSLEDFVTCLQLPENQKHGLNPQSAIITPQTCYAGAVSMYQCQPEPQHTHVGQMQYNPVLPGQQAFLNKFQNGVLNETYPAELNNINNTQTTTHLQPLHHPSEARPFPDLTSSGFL
# [11] = biological target: T6, Rac GTPase-activating protein 1 (Homo sapiens, UniProt Q9H0H5); assay: MgcRacGAP GTPase-activating activity inhibitors, confirmation, biochemical, ADP Hunter fluorescence, primary and confirmatory (AID 624330); assay type: functional
# T6 sequence (Q9H0H5 whole entry): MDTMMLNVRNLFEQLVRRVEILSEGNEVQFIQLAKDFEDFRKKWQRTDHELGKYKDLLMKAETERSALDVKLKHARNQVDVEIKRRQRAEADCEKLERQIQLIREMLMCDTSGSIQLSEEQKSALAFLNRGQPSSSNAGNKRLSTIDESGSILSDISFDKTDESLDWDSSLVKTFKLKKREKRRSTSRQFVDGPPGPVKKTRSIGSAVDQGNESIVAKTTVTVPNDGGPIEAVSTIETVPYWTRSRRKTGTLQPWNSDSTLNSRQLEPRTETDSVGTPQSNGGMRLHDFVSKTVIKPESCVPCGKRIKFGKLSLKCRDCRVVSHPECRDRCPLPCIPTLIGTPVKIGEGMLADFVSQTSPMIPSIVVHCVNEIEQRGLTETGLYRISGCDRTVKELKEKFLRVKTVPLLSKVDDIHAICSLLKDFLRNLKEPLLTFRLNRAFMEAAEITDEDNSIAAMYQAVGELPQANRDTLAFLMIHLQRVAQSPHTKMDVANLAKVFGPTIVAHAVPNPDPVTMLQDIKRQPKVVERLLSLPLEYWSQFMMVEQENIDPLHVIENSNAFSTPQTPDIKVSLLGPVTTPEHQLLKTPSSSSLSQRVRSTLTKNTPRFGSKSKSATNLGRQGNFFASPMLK
# P388/ADR = assay: cells; assay type: functional; settings: Mus musculus
# P388 = assay: cells; assay type: functional; settings: Mus musculus
# SN12K1 = assay: cells; assay type: functional; settings: Homo sapiens
# Mu-type opioid receptor = Mu-type opioid receptor (Homo sapiens, UniProt P35372); assay type: functional, cell-based;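 also: U2OS cells with beta-arrestin recruitment to OPRM1 by beta-gal complementation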
# Sequence of Mu-type opioid receptor (P35372 whole entry): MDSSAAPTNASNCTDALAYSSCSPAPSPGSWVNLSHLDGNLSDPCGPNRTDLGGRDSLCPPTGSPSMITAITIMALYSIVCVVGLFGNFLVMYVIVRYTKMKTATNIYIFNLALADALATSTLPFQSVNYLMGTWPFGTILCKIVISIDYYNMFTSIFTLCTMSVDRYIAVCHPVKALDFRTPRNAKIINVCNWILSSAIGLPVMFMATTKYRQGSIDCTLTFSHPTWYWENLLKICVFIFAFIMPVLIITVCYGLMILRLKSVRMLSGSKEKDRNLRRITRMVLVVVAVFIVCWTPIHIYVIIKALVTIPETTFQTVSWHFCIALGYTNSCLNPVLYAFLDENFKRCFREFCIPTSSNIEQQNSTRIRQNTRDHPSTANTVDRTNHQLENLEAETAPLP
# [12] = biological target: 5-hydroxytryptamine receptor 2A (Mus musculus, UniProt P35363); assay type: functional, cell-based;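 also: CHO-K1 cells with tagged receptor and beta-arrestin; agonist potency measured as compound-induced activation of the receptor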
# Sequence of 5-hydroxytryptamine receptor 2A (P35363 whole entry): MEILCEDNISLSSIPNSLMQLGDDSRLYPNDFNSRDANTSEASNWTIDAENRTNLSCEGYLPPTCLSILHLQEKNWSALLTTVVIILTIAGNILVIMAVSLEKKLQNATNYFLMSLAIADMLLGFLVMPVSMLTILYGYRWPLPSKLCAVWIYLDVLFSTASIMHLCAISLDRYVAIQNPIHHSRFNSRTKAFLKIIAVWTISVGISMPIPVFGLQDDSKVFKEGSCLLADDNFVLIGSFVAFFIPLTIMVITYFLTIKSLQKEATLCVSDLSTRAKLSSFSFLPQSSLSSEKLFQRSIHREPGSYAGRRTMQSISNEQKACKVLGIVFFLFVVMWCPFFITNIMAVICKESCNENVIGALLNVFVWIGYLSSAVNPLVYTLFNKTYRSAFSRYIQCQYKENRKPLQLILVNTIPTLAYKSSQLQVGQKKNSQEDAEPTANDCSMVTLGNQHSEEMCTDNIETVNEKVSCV
smiles,measurement,setting,value
CC(C)(C)c1cc(=O)n(-c2ccccc2)[nH]1,IC50,[1],19.1 µM (active)
same,IC50,[2],7.95 µM (active)
same,IC50,[3],> 50 µM (not active)
CC(C)(CN1CCN(Cc2ccccc2)CC1)NS(=O)(=O)c1ccc(Cl)cc1,AC50,Vero,33.7 µM (active)
CSc1ccc(/C=C/C(=O)N2CCN(c3ccccn3)CC2)cc1,IC50,Beta-galactosidase,> 80 µM (inactive)
same,IC50,[4],> 47.1 µM (inactive)
same,EC50,[5],> 53 µM (inactive)
N#CC(C#N)=C1C=C2C=C(N3CCCCC3)CCC2CC1 (stereo not drawn),IC50,Beta-lactamase [6],2.51 µM (active)
same,IC50,Beta-lactamase [7],1.23 µM (active)
O=c1oc2cc(O)ccc2c2oc3cc(O)ccc3c12 [COUMESTROL],IC50,[8],14.7 µM (active)
same,IC50,[9],> 66.6 µM (inactive)
same,AC50,[10],50.1 µM (inconclusive)
same,IC50,[11],32.3 µM (active)
same,GI50,P388/ADR,26.2 µM (inactive)
same,GI50,P388,27.4 µM (inactive)
same,GI50,SN12K1,50 µM (inactive)
Cc1ccc2c(C)c(C(=O)Nc3c(C)n(C)n(-c4ccccc4)c3=O)oc2c1C,EC50,Mu-type opioid receptor,92.5 µM (inactive)
same,EC50,[12],18.9 µM (inactive)
